Experimental data: PMC2834671, “Differential activity of innate defense antimicrobial peptides against Nocardia species” (BMC Microbiology, 2010)
Positions of bridges follow the written chain, without caps; N, C: chain ends. Residues, ends and D or L forms follow the SMILES beside them. No end group written: not given here.

Tests used:
N. farcinica ATCC 3318 = assay: Colony forming unit (CFU) assay against N. farcinica; type: cell-based, Nocardia farcinica; settings: for LD90: lowest concentration leading to 90% reduction of CFU, 1 × 10^7 CFU/ml in 10 mM sodium phosphate buffer pH 7.4 + 1% MHB, means of at least four (levofloxacin, HNP 1-3, LL-37, hBD-3) or two (indolicidin, LAP, TAP) independent experiments
Method: (§1) Four strains of the genus Nocardia were investigated: Nocardia farcinica (ATCC 3318), Nocardia nova (ATCC 33726), Nocardia asteroides (ATCC 19247) and Nocardia brasiliensis (ATCC 19296). Strains were grown on Columbia blood agar for at least 72 hours at 37°C. Then 30 ml of Mueller-Hinton-broth (MHB) supplemented with 1% Tween 80 (Serva, Heidelberg, Germany) was inoculated with one loop of bacteria scraped off the agar plates. MHB was incubated in a shake incubator (220 rpm at 37°C). 10 ml of the culture was transferred to a 50 ml tube which contained 1 mm glass beads (BioSpec Products, Bartlesville, USA). After vortexing for 10-15 seconds a homogenous suspension could be gained. A few millilitres of the suspension were used to inoculate another 50 ml of MHB (also supplemented with 1% Tween 80). Cultures were incubated until mid-logarithmic phase was reached. Incubation times were different for each Nocardia species (N. farcinica 12 h, N. nova 24 h, N. asteroides 16 h, N. brasiliensis 72 h).
(§2) A colony forming unit (CFU) assay was established and performed to test AMP susceptibility. Mid-logarithmic growth phase cultures were washed twice in 10 mM sodium phosphate buffer (ph 7.4). A standard inoculum of 1 × 10^7CFU/ml in 10 mM sodium phosphate buffer supplemented with 1% MHB was prepared. 80 μl of the standard inoculum were incubated with 20 μl of the respective concentrations of the antimicrobial agents in the shake incubator at 37°C for 12 h (N. farcinica) to 16 h (N. nova, N. asteroides and N. brasiliensis). Incubation was carried out in 2 ml tubes (Eppendorf, Hamburg, Germany) which were occluded by LidBacs (Eppendorf, Hamburg, Germany) to avoid contamination and provide constant aerobic conditions. After incubation serial dilutions were plated on Mueller-Hinton agar plates and visible colonies were counted after 48-72 hours of incubation at 37°C. Killing was expressed in percentage of bacteria that were killed by incubation with respective peptide concentrations compared to incubation with solvent of the antibacterial substance (0,01% acetic acid or water). LD90 denotes the lowest peptide concentration leading to a =90% reduction of CFU counts. […] Killing activity (CFU counts after incubation with solvent vs. CFU counts after incubation with highest concentration of AMPs or levofloxacin) was analysed by Student's t-test. A p-value < 0.05 was considered significant.

N. nova ATCC 33726 = assay: Colony forming unit (CFU) assay against N. nova; type: cell-based, Nocardia nova; settings: for antinocardial activity (in words): CFU assay; for antinocardial activity (in words) / LD90: 16 h; for LD90: lowest concentration leading to 90% reduction of CFU, 1 × 10^7 CFU/ml in 10 mM sodium phosphate buffer pH 7.4 + 1% MHB, 37°C, means of at least four or two (indolicidin) independent experiments; for killing/CFU reduction in percent ± SD: ATCC 33726, 16 h
Method: as §1, §2

[1] = test system: N. brasiliensis ATCC 19296; assay: Colony forming unit (CFU) assay against N. brasiliensis; type: cell-based, Nocardia brasiliensis; settings: for antinocardial activity (in words) / growth of N. brasiliensis after incubation (in words): CFU assay; for antinocardial activity (in words): concentrations up to 64 μg/ml; for LD90: lowest concentration leading to 90% reduction of CFU, 1 × 10^7 CFU/ml in 10 mM sodium phosphate buffer pH 7.4 + 1% MHB, means of at least four or two (indolicidin, LAP, TAP) independent experiments; for growth of N. brasiliensis after incubation (in words): data not shown
Method: as §1, §2

N. asteroides ATCC 19247 = assay: Colony forming unit (CFU) assay against N. asteroides; type: cell-based, Nocardia asteroides; settings: for antinocardial activity (in words): CFU assay; for LD90: lowest concentration leading to 90% reduction of CFU, 1 × 10^7 CFU/ml in 10 mM sodium phosphate buffer pH 7.4 + 1% MHB, means of at least four or two (indolicidin) independent experiments
Method: as §1, §2

[2] = at the LD90 concentration, 12 h, 37°C, mean ± SD of at least four or two (indolicidin, LAP, TAP) independent experiments
[3] = at the LD90 concentration, 16 h, 37°C, mean ± SD of at least four or two (indolicidin) independent experiments

Row | Compound | antinocardial activity (in words) (N. farcinica ATCC 3318; CFU assay, 12 h) | killing/CFU reduction in percent ± SD (N. farcinica ATCC 3318; [2]) [%] | LD90 (N. farcinica ATCC 3318; 37°C, 12 h) [µg/mL] | antinocardial activity (in words) (N. nova ATCC 33726) | LD90 (N. nova ATCC 33726) [µg/mL] | antinocardial activity (in words) ([1]; 16 h) | killing/CFU reduction in percent ± SD [1, 3] [%] | LD90 ([1]; 37°C, 16 h) [µg/mL] | antinocardial activity (in words) (N. asteroides ATCC 19247; 16 h) | killing/CFU reduction in percent ± SD (N. asteroides ATCC 19247; [3]) [%] | LD90 (N. asteroides ATCC 19247; 37°C, 16 h) [µg/mL] | growth of N. brasiliensis after incubation (in words) ([1]; 16 h) | killing/CFU reduction in percent ± SD (N. farcinica ATCC 3318; ATCC 3318, 12 h) [%] | killing/CFU reduction in percent ± SD (N. nova ATCC 33726) [%] | killing/CFU reduction in percent ± SD ([1]; ATCC 19296, 16 h) [%] | killing/CFU reduction in percent ± SD (N. asteroides ATCC 19247; ATCC 19247, 16 h) [%] | CFU reduction (N. farcinica ATCC 3318; 16 μg/ml peptide alone, single assay (Figure 2)) [%]
1 | C[C@H]1COc2c(N3CCN(C)CC3)c(F)cc3c(=O)c(C(=O)O)cn1c23 [Levofloxacin, reference compound] | dose-dependent activity | 92.3 ± 3.8 | 8 | dose-dependent activity | >32 | dose-dependent activity | 96.6 ± 2.2 | 32 | dose-dependent activity | 92.6 ± 3.8 | 8 |  |  |  |  |  | 
2 | CC[C@H](C)[C@@H]1NC(=O)CNC(=O)[C@H](CCCCN)NC(=O)[C@H](CC(N)=O)NC(=O)[C@H](CCCNC(=N)N)NC(=O)[C@H](C(C)C)NC(=O)[C@@H](NC(=O)[C@H](CO)NC(=O)[C@@H](NC(=O)[C@@H]2CCCN2C(=O)[C@@H](N)CC(N)=O)C(C)C)CSSC[C@@H]2NC(=O)[C@H](CCCCN)NC(=O)[C@H](C(C)C)NC(=O)[C@H](C)NC(=O)[C@H](CCCNC(=N)N)NC(=O)CNC(=O)[C@H](C(C)C)NC(=O)[C@@H]3CSSC[C@H](NC1=O)C(=O)N[C@@H](C(C)C)C(=O)N1CCC[C@H]1C(=O)N[C@@H]([C@@H](C)CC)C(=O)N[C@@H](CCCNC(=N)N)C(=O)N[C@@H](CSSC[C@@H](C(=O)N[C@@H](CCCNC(=N)N)C(=O)N[C@@H](CCCCN)C(=O)N[C@@H](CCCCN)C(=O)O)NC2=O)C(=O)N1CCC[C@H]1C(=O)NCC(=O)N[C@@H](CO)C(=O)N[C@@H](CCSC)C(=O)N[C@@H](CCCCN)C(=O)N[C@@H](CCC(N)=O)C(=O)N[C@@H]([C@@H](C)CC)C(=O)NCC(=O)N[C@@H]([C@@H](C)O)C(=O)N3 [TAP] (H-NPVSCVRNKGICVPIRCPGSMKQIGTCVGRAVKCCRKK-OH; disulfide 5-34, 12-27, 17-35 (inferred); N-terminus and C-terminus assumed) |  | 94 ± 5.1 | 32 |  |  | resistant |  |  |  |  |  | pronounced growth |  |  |  |  | 
3 | GIINTLQKYYCRVRGGRCAVLSCLPKEEQIGKCSTRGRKCCRRKK (disulfide 11-40, 18-33, 23-41 (inferred)) [hBD-3] |  |  | 16 | more potent against N. nova than levofloxacin | 16 | resistant |  | >64 | did not show antinocardial activity |  | >64 | stronger growth | 92.5 ± 5.3 | 95.2 ± 1.7 |  |  | 
4 | CC[C@H](C)[C@H](N)C(=O)N[C@@H](CC(C)C)C(=O)N1CCC[C@H]1C(=O)N[C@@H](Cc1c[nH]c2ccccc12)C(=O)N[C@@H](CCCCN)C(=O)N[C@@H](Cc1c[nH]c2ccccc12)C(=O)N1CCC[C@H]1C(=O)N[C@@H](Cc1c[nH]c2ccccc12)C(=O)N[C@@H](Cc1c[nH]c2ccccc12)C(=O)N1CCC[C@H]1C(=O)N[C@@H](Cc1c[nH]c2ccccc12)C(=O)N[C@@H](CCCNC(=N)N)C(=O)N[C@@H](CCCNC(=N)N)C(N)=O [indolicidin] |  |  | 16 |  | 8 |  |  | 64 |  |  | 64 |  | 96.7 ± 1.7 | 90.5 ± 3.4 | 92.9 ± 2.1 | 99.1 ± 0.6 | 
5 | LAP: bovine β-defensin lingual antimicrobial peptide, synthesized and oxidatively folded (VRNSQSCRRNKGICVPIRCPGSMRQIGTCLGAQVKCCRRK; disulfide (positions not given here); UniProt Q28880 25-64, looked up) |  | 92.9 ± 7.1 | 16 |  |  | resistant |  | >64 |  |  |  | pronounced growth |  |  |  |  | 
6 | CC[C@H](C)[C@H](NC(=O)[C@H](CCCCN)NC(=O)[C@H](CCC(=O)O)NC(=O)[C@H](CCCCN)NC(=O)[C@H](CO)NC(=O)[C@H](CCCCN)NC(=O)[C@H](CCCNC(=N)N)NC(=O)[C@H](Cc1ccccc1)NC(=O)[C@H](Cc1ccccc1)NC(=O)[C@H](CC(=O)O)NC(=O)CNC(=O)[C@H](CC(C)C)NC(=O)[C@@H](N)CC(C)C)C(=O)NCC(=O)N[C@@H](CCCCN)C(=O)N[C@@H](CCC(=O)O)C(=O)N[C@@H](Cc1ccccc1)C(=O)N[C@@H](CCCCN)C(=O)N[C@@H](CCCNC(=N)N)C(=O)N[C@H](C(=O)N[C@H](C(=O)N[C@@H](CCC(N)=O)C(=O)N[C@@H](CCCNC(=N)N)C(=O)N[C@H](C(=O)N[C@@H](CCCCN)C(=O)N[C@@H](CC(=O)O)C(=O)N[C@@H](Cc1ccccc1)C(=O)N[C@@H](CC(C)C)C(=O)N[C@@H](CCCNC(=N)N)C(=O)N[C@@H](CC(N)=O)C(=O)N[C@@H](CC(C)C)C(=O)N[C@H](C(=O)N1CCC[C@H]1C(=O)N[C@@H](CCCNC(=N)N)C(=O)N[C@H](C(=O)N[C@@H](CCC(=O)O)C(=O)N[C@@H](CO)C(=O)O)[C@@H](C)O)C(C)C)[C@@H](C)CC)C(C)C)[C@@H](C)CC [LL-37] |  |  |  | more potent against N. nova than levofloxacin | 32 | resistant |  | >64 | did not show antinocardial activity |  | >64 | stronger growth |  |  |  |  | 68.5
